Patent US20250354049A1, “CORROSION-INHIBITING AGENTS FOR REDUCING DISSOLVED OXYGEN CONCENTRATIONS WITHIN UPSTREAM OILFIELD SYSTEMS” (Finoric LLC, priority 2024, published 2025)
≈ marks a conversion by molar mass, not a printed value. Entries after “also recorded” stand apart in the source; their conditions may differ. Read-outs that look alike come from different tables or passages of the source.

Experiments:
[1] = cited from earlier work
[2] = Example 6: oxygen scavenging in deionized water with and without P110 steel coupon
Experimental: For a first test, no steel coupon was present but for a second test, a P110 steel coupon was suspended in the water. The dissolved oxygen was measured as a function of time at room temperature (˜ 70° F.) for both tests. FIG. 10 provides a picture 1000 of the second test in which the steel coupon was submerged in the deionized water within the glass vessel.
At the 180 min mark, the temperature was increased from 70° F. to 100° F. in both tests.

[3] = Example 1: oxygen scavenging in deionized water, impact of temperature and activator; conditions: for dissolved oxygen scavenged: absence of catalyst, after 6 h, pH ~6.4, deionized water; for dissolved oxygen scavenged / time until all detectable dissolved oxygen was scavenged: 200 ppm; for time until all detectable dissolved oxygen was scavenged: with activator CuSO4·5H2O 10 ppm, pH ~6.4
Experimental: To prepare the experiment, 500 mL of deionized water (saturated with dissolved oxygen) was placed in a 3-neck round bottom flask, and a calibrated dissolved oxygen probe was inserted into the center neck. FIG. 5 provides picture 500 of the experiment setup. The water was stirred magnetically, and the pH and temperature were adjusted to the indicated values. Temperature was controlled by heating in a water bath, and pH was adjusted to ˜6.4 with dilute hydrogen chloride (HCl). […] The corrosion-inhibiting agent and activator (if used) were injected via micropipette through one of the side necks in the flask. […] The flask was then sealed and dissolved oxygen was monitored continuously as a function of time.

[4] = solvents named; cited from earlier work
[5] = cited from earlier work; remark: listed apart in the source
[6] = second test, P110 steel coupon present, 200 ppm, ~70° F.

## N.O=S(O)O [Ammonium bisulfite]
[1]
  ~pKa: 7

## O=C1O[C@H]([C@@H](O)CO)C(O)=C1O [Ascorbic Acid]
[2]; after temperature increased from 70° F. to 100° F. at the 180 min mark
  dissolved oxygen left behind: ~0.37 ppm
[2]; copper catalyst (10 ppm) injected at the 235 min mark, 100° F.
  dissolved oxygen after bolus of copper catalyst: non-detectable levels
[2]; first test without coupon, 200 ppm, dropped from 9.05 ppm, room temperature (~70° F.)
  dissolved oxygen concentration after 4 h: 5.23 ppm
[2]; first test without coupon, 200 ppm, ~70° F.
  reaction with dissolved oxygen (in words): only a slow reaction was observed
[2]; [6]
  rate of reaction with dissolved oxygen (in words): increased significantly
  time after which the scavenging reaction stalled: 180 min
[3]; absence of activator, FIG. 6 solid lines
  reaction with dissolved oxygen (in words): relatively sluggish
[3]; 100° F.
  dissolved oxygen scavenged: approximately 35%
  time until all detectable dissolved oxygen was scavenged: ≤ 2 min
[3]; 135° F.
  dissolved oxygen scavenged: ~93%
[3]; copper catalyst (CuSO4·5H2O) added, FIG. 6 dashed lines
  reaction rate with dissolved oxygen (in words): significant increase in reaction rate
[3]; ambient temperature (72° F.)
  time until all detectable dissolved oxygen was scavenged: ≤ 15 min

## NNC(=O)NN [Carbohydrazide]
[4]
  Solubility in Other Solvents: ethanol
[5]
  Solubility in Water (in words): Very
[1]
  ~pKa: 11.81

## CCN(O)CC [Diethylhydroxylamine (DEHA), diethylhydroxylamine]
[5]
  Solubility in Water (in words): Miscible
[1]
  ~pKa: 5.7

## NN [Hydrazine]
[4]
  Solubility in Other Solvents: Ethanol,; also recorded: methanol
[5]
  Solubility in Water (in words): Miscible
[1]
  ~pKa: 8-9

## Oc1ccc(O)cc1 [Hydroquinone (HQ), Hydroquinone]
[4]
  Solubility in Other Solvents: Ethanol,; also recorded: acetone
[5]
  Solubility in Water: 59 mg/mL (≈ 536 mM)
[1]
  ~pKa: 9.9

## CCC(C)=NO [Methylethylketoxime (MEKO), Methylethylketoxime]
[4]
  Solubility in Other Solvents: Ethanol
[5]
  Solubility in Water (in words): Miscible

## O=S([O-])O.[Na+] [Sodium Bisulfite]
[1]
  ~pKa: ~7
[1]; listed as sodium bisulfite
  ~pKa: ~7

## O=S([O-])S(=O)(=O)[O-].[Na+].[Na+] [Sodium Metabisulfite, reference compound]
[4]
  Solubility in Other Solvents: Glycerol,; also recorded: ethanol
[5]
  Solubility in Water: 653 mg/mL
[1]
  ~pKa: ~1.8

## O=S([O-])[O-].[Na+].[Na+] [Sodium Sulfite]
[1]
  ~pKa: ~9
[1]; listed as sodium sulfite
  ~pKa: ~9

## O=S([O-])([O-])=S.[Na+].[Na+] [Sodium Thiosulfate]
[1]
  ~pKa: 1.74
